Measurements reported in article PMC10530293, “Supramolecular multivalency effects enhance imine formation in aqueous medium allowing for dynamic modification of enzymatic activity” (Chemical Science, 2023).

Molecular target: T1, carbonic anhydrase (CA) from bovine erythrocytes (Bos taurus, UniProt P00921)
T1 construct: gene CA2; native full-length enzyme from bovine erythrocytes, N-terminal Ser1, 18 Lys
Assay: UV monitoring of 4-nitrophenyl acetate hydrolysis (esterase activity)
Format: biochemical
Conditions: read-out: apparent IC50

T1 sequence (P00921 2-260): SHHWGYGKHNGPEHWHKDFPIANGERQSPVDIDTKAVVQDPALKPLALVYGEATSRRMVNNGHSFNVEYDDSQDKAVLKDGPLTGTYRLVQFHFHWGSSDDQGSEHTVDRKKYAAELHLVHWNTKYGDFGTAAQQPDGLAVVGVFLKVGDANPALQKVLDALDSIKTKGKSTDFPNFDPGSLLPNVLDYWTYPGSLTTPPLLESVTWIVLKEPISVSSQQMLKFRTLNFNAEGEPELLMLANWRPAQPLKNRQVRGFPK

IC50: ~1000 nM
SMILES: O=Cc1c(F)c(F)c(SC[C@H](NC(=O)OCc2ccccc2)C(=O)O)c(F)c1F [A8]
